Source: patent US7879795B2, “Enhancement of tigecycline potency using efflux pump inhibitors” (Mpex Pharmaceuticals, Inc., priority 2004, dated 2011)
Values after ≈ are worked out from the molar mass of the structure shown.

Legend:
Klebsiella pneumonia = details: cited from earlier work
Klebsiella pneumonia 73 = experiment: Antibiotic MIC with fixed concentration of compound 21, Klebsiella pneumonia 73; format: cell-based; details: tigecycline alone
Method: (§1) To further characterize the clinical potential of tigecycline/EPI combinations, the microbiological activity of tigecycline in combination with compound 21 was investigated using clinical isolates of P. aeruginosa and other gram-negative bacteria. In several experiments, described below, the impact of a fixed concentration of compound 21 (2.5 μg/ml) on susceptibility to tigecycline was determined.
(§2) The impact of compound 21 on the activity of tigecycline against representative members of Enterobacteriacaea was also tested.

[1] = test system: PAM 1738, MexCD-OprJ over-expressed, ΔMexAB-OprM ΔMexEF-OprN; experiment: microbe, parasite or virus in culture; format: cell-based, P. aeruginosa; details: Pseudomonas aeruginosa, read-out: Tigecycline MIC in the presence of Compound 21
Method: (§3) The ability of compound 21 to increase susceptibility to tigecycline was also assessed. The tigecycline potentiating activity of compound 21 was assessed by the checkerboard assay (Antimicrobial Combinations, Antibiotics in Laboratory Medicine, ed. Victor Lorian, M.D., Fourth edition, 1996, pp 333-338, which is incorporated herein by reference in its entirety) using a broth micro-dilution method performed as recommended by the CSLI (Clinical and Laboratory Standards Institute, formerly NCCLS) guidelines (National Committee for Clinical Laboratory Standards 2003. Methods for Dilution Antimicrobial Susceptibility Tests for Bacteria That Grow Aerobically—Sixth Edition; Approved Standard. NCCLS Document M7-A6, Vol 20 No. 2). In this assay, multiple dilutions of the two drugs, compound 21 and tigecycline, were tested alone and in combination, at concentrations equal to, above and below their respective minimal inhibitory concentrations (MICs). […] The stock solution was further diluted in Mueller Hinton Broth (MHB). Stock solutions were stored at −80° C.
(§4) The checkerboard assay was performed in microtiter plates. Tigecycline was diluted in the x axis, each column containing a single concentration of tigecycline. Compound 21 was diluted in the y axis, each row containing an equal concentration of the EPI. […] The assay was performed in MHB with a final bacterial inoculum of 5×10^5 CFU/ml (from an early-log phase culture). The microtiter plates were incubated for 20 hours at 35° C. and then read using a microtiter plate reader (Molecular Devices) at 650 nm, as well as by visual observation using a microtiter plate-reading mirror.

[2] = test system: PAM 1323, mexZ, MexXY-OprM over-expressed, MexAB-OprM low level; experiment: microbe, parasite or virus in culture; format: cell-based, P. aeruginosa; details: Pseudomonas aeruginosa, read-out: Tigecycline MIC in the presence of Compound 21
Method: as §3, §4

[3] = test system: PAM 1723, MexAB-OprM over-expressed, ΔMexCD-OprJ ΔMexEF-OprN; experiment: microbe, parasite or virus in culture; format: cell-based, P. aeruginosa; details: Pseudomonas aeruginosa, read-out: Tigecycline MIC in the presence of Compound 21
Method: as §3, §4

[4] = test system: PAM 2466, mexR1, MexAB-OprM and MexXY-OprM over-expressed; experiment: microbe, parasite or virus in culture; format: cell-based, P. aeruginosa; details: Pseudomonas aeruginosa, read-out: Tigecycline MIC in the presence of Compound 21
Method: as §3, §4

[5] = test system: Enterobacter aerogenes 19; experiment: Antibiotic MIC with fixed concentration of compound 21, Enterobacter aerogenes 19; format: cell-based; details: tigecycline alone
[6] = test system: Strain S41, a clinical isolate; experiment: microbe, parasite or virus in culture; format: cell-based, P. aeruginosa
[7] = test system: PAM 1753, MexEF-OprN over-expressed; experiment: Tigecycline potentiation checkerboard assay, PAM 1753; format: cell-based, P. aeruginosa; details: Pseudomonas aeruginosa, read-out: Tigecycline MIC in the presence of Compound 21
Method: as §3, §4

[8] = test system: P. aeruginosa strain PAM 1032; experiment: Mouse model of P. aeruginosa sepsis infection (tigecycline 50% effective dose); format: in vivo; details: mice, tigecycline SC at 0 and 2 hours; Reed and Meunch
Method: Tigecycline and compound 21 were prepared in sterile 0.9% saline. Seventy Swiss-Webster mice (Harlan laboratories) with body weights ranging from 22 to 25 grams at the start of the study were used. Upon receipt, the animals were housed 5 per cage in a room with a controlled environment and were acclimated to laboratory conditions for at least 24 hours prior to the start of dosing. Animals were provided food and water ad libitum. The health status of the animals was determined during the acclimation period and unhealthy animals were not placed on study. Each animal was identified by marking their tails with indelible ink and each cage was identified by animal, group, and study number.
P. aeruginosa strain PAM 1032 was grown in Mueller-Hinton Broth (MHB) at 35° C. under constant aeration. After 20 hours, the inoculum was sub-cultured into fresh MHB and allowed to regrow at 35° C., under constant aeration, for 4 hours. The inoculum was adjusted to ca. 4×10^7 CFU/ml by correlation of absorbance at 600 nm with predetermined plate counts. The inoculum was then diluted 2-fold in 14% hog-gastric mucin (Sigma, St. Louis, Mo.) for a final inoculum concentration of 2×10^7 CFU/ml. […] At 0 and 2 hours following infection, tigecycline was administered by the subcutaneous route and compound 21 was administered by the intraperitoneal route. […] The susceptibility of the test strain (P. aeruginosa PAM1032, […] MexAB-OprM) to tigecycline was 4 ug/ml, the susceptibility of the test strain to tigecycline in the presence of 2.5 μg/mL of compound 21 was 0.25 μg/mL.

[9] = test system: 110 clinical isolates of P. aeruginosa; experiment: Tigecycline susceptibility of P. aeruginosa clinical isolates with fixed concentration of compound 21; format: cell-based; details: tigecycline alone; 110 clinical isolates
Method: as §1
Results from an experiment using 110 clinical isolates of P. aeruginosa are presented in FIG. 1, as the distribution of tigecycline MICs with or without the EPI potentiator.

[10] = test system: PAM 1032, nalB, MexAB-OprM over-expressed; experiment: microbe, parasite or virus in culture; format: cell-based, P. aeruginosa
Method: as §3, §4
P. aeruginosa strain PAM 1032 was grown in Mueller-Hinton Broth (MHB) at 35° C. under constant aeration. After 20 hours, the inoculum was sub-cultured into fresh MHB and allowed to regrow at 35° C., under constant aeration, for 4 hours. The inoculum was adjusted to ca. 4×10^7 CFU/ml by correlation of absorbance at 600 nm with predetermined plate counts. The inoculum was then diluted 2-fold in 14% hog-gastric mucin (Sigma, St. Louis, Mo.) for a final inoculum concentration of 2×10^7 CFU/ml. […] At 0 and 2 hours following infection, tigecycline was administered by the subcutaneous route and compound 21 was administered by the intraperitoneal route.

[11] = test system: PAM 1626, Four pumps non-functional; experiment: Tigecycline potentiation checkerboard assay, PAM 1626; format: cell-based, P. aeruginosa; details: Pseudomonas aeruginosa, read-out: Tigecycline MIC in the presence of Compound 21
Method: as §3, §4

Klebsiella pneumonia 79 = experiment: Antibiotic MIC with fixed concentration of compound 21, Klebsiella pneumonia 79; format: cell-based; details: tigecycline alone
Method: as §1, §2

PAM 1020, wt = experiment: Tigecycline potentiation checkerboard assay, PAM 1020; format: cell-based, P. aeruginosa; details: Pseudomonas aeruginosa, read-out: Tigecycline MIC in the presence of Compound 21
Method: as §3, §4

[12] = test system: laboratory strains of P. aeruginosa; experiment: Tigecycline susceptibility of laboratory strains of P. aeruginosa over-expressing or lacking efflux pumps; format: cell-based; details: compared to the wild-type strain PAM1020
Method: as §3, §4

Citrobacter freundii 13 = experiment: Antibiotic MIC with fixed concentration of compound 21, Citrobacter freundii 13; format: cell-based; details: tigecycline alone
Method: as §1, §2

Enterobacter cloacae 25 = experiment: Antibiotic MIC with fixed concentration of compound 21, Enterobacter cloacae 25; format: cell-based; details: tigecycline alone

Question: With `CN(C)c1cc(NC(=O)CNC(C)(C)C)c(O)c2c1C[C@H]1C[C@H]3[C@H](N(C)C)C(O)=C(C(N)=O)C(=O)[C@@]3(O)C(O)=C1C2=O` [Tigecycline] as the molecule, how does the “frequency of emergence of efflux-mediated tigecycline resistance” value (Klebsiella pneumonia) read?
Answer: ~4×10^−8

Question: What about the Tig (MIC) (Klebsiella pneumonia 73) of the same molecule?
Answer: 2 µg/mL

Question: And the MIC [1]?
Answer: 0.001 µg/mL

Question: What about the MIC [2] of the same molecule?
Answer: 0.004 µg/mL

Question: What about the MIC [3] of the same molecule?
Answer: 0.004 µg/mL

Question: And the MIC [4]?
Answer: 0.008 µg/mL

Question: What about the Tig (MIC) [5] of the same molecule?
Answer: 4 µg/mL

Question: And the MIC ([6]; Pseudomonas aeruginosa, read-out: Tigecycline MIC, alone)?
Answer: 1 µg/mL (≈ 1.71 µM)

Question: And the “Mutation Frequency on Tigecycline at 4 μg/ml, alone” value ([6]; strain S41, 4× MIC)?
Answer: 8.3 × 10^−8

Question: What about the MIC [7] of the same molecule?
Answer: 0.002 µg/mL

Question: And the “50% effective dose of tigecycline alone” value [8]?
Answer: greater than 200 mg/kg

Question: And the MIC50, Tigecycline [9]?
Answer: 2 µg/mL

Question: And the MIC90, Tigecycline [9]?
Answer: 8 µg/mL

Question: What about the “susceptibility of the test strain to tigecycline” value ([10]; PAM1032, tigecycline alone) of the same molecule?
Answer: 4 µg/mL

Question: What about the MIC ([10]; Pseudomonas aeruginosa, read-out: Tigecycline MIC in the presence of Compound 21) of the same molecule?
Answer: 0.004 µg/mL

Question: And the MIC [11]?
Answer: 0.0005 µg/mL

Question: What about the Tig (MIC) (Klebsiella pneumonia 79) of the same molecule?
Answer: 4 µg/mL

Question: And the MIC (PAM 1020, wt)?
Answer: 0.002 µg/mL

Question: What about the “increase in susceptibility to tigecycline on deleting all four efflux pumps (PAM1626)” value [12] of the same molecule?
Answer: 4 fold

Question: What about the Tig (MIC) (Citrobacter freundii 13) of the same molecule?
Answer: 4 µg/mL

Question: What about the Tig (MIC) (Enterobacter cloacae 25) of the same molecule?
Answer: 2 µg/mL
